From ChEMBL document CHEMBL3864162, “Discovery of potent inhibitors of the lysophospholipase autotaxin” (Bioorg Med Chem Lett, 2016)
pIC50: −log10 of the molar value.

Legend:
Autotaxin [1] = molecular target: T1, Autotaxin (Homo sapiens, UniProt Q13822); test: Inhibition of human recombinant ATX using FS-3 as substrate incubated in dark for 45 mins by fluorescence assay
Autotaxin [2] = molecular target: T1, Autotaxin; test: Inhibition of ATX in human plasma assessed as decrease in hydrolysis of lysophosphatidylcholine by measuring choline release after 24 hrs by horseradish peroxidase/choline oxidase-coupled assay; format: cell-free
[3] = Volume of distribution at steady state in CD1 mouse at 1 mg/kg, iv administered as bolus dose measured up to 7 hrs by UPLC/MS/MS spectrometry analysis; format: ADME, organism-based; details: in vivo, read-out: Vdss
[4] = Blood clearance in CD1 mouse at 1 mg/kg, iv administered as bolus dose measured up to 7 hrs by UPLC/MS/MS spectrometry analysis; format: ADME, organism-based
[5] = Intrinsic clearance in CD1 mouse liver microsomes assessed per gram of liver at 1 uM in presence of NADPH regenerating system measured up to 45 mins by UPLC/MS/MS analysis; format: ADME; details: 0.75 h
[6] = Half life in CD1 mouse blood at 1 mg/kg, iv administered as bolus dose measured up to 7 hrs by UPLC/MS/MS spectrometry analysis; format: ADME, organism-based
Autotaxin [7] = molecular target: T1, Autotaxin; test: Inhibition of human recombinant ATX using Rac-1-Palmitoyl-glycero-3-phosphocholine as substrate incubated for 2 hrs using ADHP fluorogenic peroxidase substrate by horseradish peroxidase/choline oxidase-coupled assay
[8] = Volume of distribution at steady state in CD1 mouse at 0.5 mg/kg, iv administered as bolus dose measured up to 7 hrs by UPLC/MS/MS spectrometry analysis; format: ADME, organism-based; details: in vivo, read-out: Vdss
[9] = Blood clearance in CD1 mouse at 0.5 mg/kg, iv administered as bolus dose measured up to 7 hrs by UPLC/MS/MS spectrometry analysis; format: ADME, organism-based
[10] = Intrinsic clearance in human liver microsomes assessed per gram of liver at 1 uM in presence of NADPH regenerating system measured up to 45 mins by UPLC/MS/MS analysis; format: ADME; details: 0.75 h
[11] = Half life in CD1 mouse blood at 0.5 mg/kg, iv administered as bolus dose measured up to 7 hrs by UPLC/MS/MS spectrometry analysis; format: ADME, organism-based

pIC50 (Autotaxin [2])	CLH [5] [mL/min/g]	pIC50 (Autotaxin [7])	Structure (SMILES)	other results
5.05	–	–	COc1ccc(CNC(=O)CCc2nc3cccnc3n2Cc2ccccc2)cc1	pIC50 (Autotaxin [1]): 7.40
5.48	21.8	6.44	C[C@H](NC(=O)OCc1nc2cccnc2n1Cc1ccc(F)cc1)c1ccc(F)cc1	–
6.38	–	–	C[C@H](NC(=O)NCc1nc2cccnc2n1Cc1ccc(F)cc1)c1ccc(Cl)cc1	–
7.47	18.1	–	C[C@H](NC(=O)CCc1nc2ccncc2n1Cc1ccc(OC(F)(F)F)cc1)c1ccc(Cl)cc1	Vd [3]: 0.2 L/kg; clearance [4]: 73 mL/min/kg; half-life [6]: 8.4 min
6.54	21.4	–	C[C@H](NC(=O)CCc1nc2cccnc2n1Cc1ccccc1)c1ccccc1	CLH [10]: 62 mL/min/g
7.72	71.5	–	C[C@H](NC(=O)CSc1nc2cccnc2n1Cc1ccc(OC(F)(F)F)cc1)c1ccc(F)cc1	Vd [3]: 0.3 L/kg; clearance [4]: 81 mL/min/kg; half-life [6]: 12 min
–	–	5.90	O=C(CCc1nc2cccnc2n1Cc1ccccc1)NCc1cccc(F)c1	–
7.59	4.4	8.30	O=C(CCc1nc2cccnc2n1Cc1ccc(F)cc1)N[C@@H](CO)c1ccc(Cl)cc1	Vd [3]: 0.2 L/kg; clearance [4]: 73 mL/min/kg; half-life [6]: 9.6 min

More lines, now with the values behind:

Structure (SMILES)	pIC50 (Autotaxin [2])	CLH [5] [mL/min/g]	pIC50 (Autotaxin [7])	other results
C[C@H](NC(=O)CCc1nc2cccnc2n1Cc1ccc(C(F)(F)F)cc1)c1ccc(Cl)cc1	7.80	26.5	–	Vd [3]: 0.88 L/kg; clearance [4]: 72 mL/min/kg; half-life [6]: 19.8 min
O=C(CCc1nc2cccnc2n1Cc1ccccc1)NCc1ccccc1	–	–	5.91	–
COc1ccc(Cn2c(CCC(=O)N[C@@H](C)c3ccccc3)nc3cccnc32)cc1	6.50	35	–	Vd [8]: 0.19 L/kg; clearance [9]: 75 mL/min/kg; CLH [10]: 21.4 mL/min/g; half-life [11]: 10.2 min
C[C@H](NC(=O)CCc1nc2cccnc2n1Cc1ccc(F)cc1)c1ccc(F)cc1	6.35	–	–	–
O=C(CCc1nc2cccnc2n1Cc1ccccc1)NCCc1ccccc1	–	–	5.46	–
O=C(CCc1nc2cccnc2n1Cc1ccccc1)NCc1ccccn1	–	–	4.96	–
C[C@H](NC(=O)CCc1nc2ccncc2n1Cc1ccc(F)cc1)c1ccc(F)cc1	6.48	–	–	–
COc1ccc(Cn2c(CCC(=O)N[C@H](C)c3ccccc3)nc3cccnc32)cc1	5.07	–	–	–
